Test: xn = mol fraction of the nth substance listed
Settings: Liquid, Vibrating tube method, x1 = 1

CCO [ethanol] + CC1CCCCC1
mass density [kg/m3]
Settings | 100 kPa | 5000 kPa | 10000 kPa | 15000 kPa | 20000 kPa | 25000 kPa | 30000 kPa | 35000 kPa | 40000 kPa | 45000 kPa
283.15 K | 798 | 802 | 805.9 | 809.5 | 813 | 816.4 | 819.7 | 822.8 | 825.9 | 828.8
293.15 K | 789.5 | 793.7 | 797.8 | 801.6 | 805.3 | 808.9 | 812.3 | 815.6 | 818.7 | 821.8
303.15 K | 780.9 | 785.3 | 789.6 | 793.7 | 797.5 | 801.3 | 804.8 | 808.2 | 811.5 | 814.7
313.15 K | 772.1 | 776.8 | 781.3 | 785.6 | 789.6 | 793.5 | 797.2 | 800.8 | 804.2 | 807.6
323.15 K | 763.3 | 768.3 | 773 | 777.6 | 781.8 | 785.9 | 789.7 | 793.5 | 797.1 | 800.5
333.15 K | 754 | 759.3 | 764.3 | 769.1 | 773.6 | 777.8 | 781.9 | 785.8 | 789.5 | 793.1
343.15 K | 744.5 | 750.1 | 755.5 | 760.5 | 765.3 | 769.8 | 774 | 778.1 | 782 | 785.7
353.15 K | – | 740.6 | 746.4 | 751.7 | 756.7 | 761.5 | 766 | 770.2 | 774.3 | 778.2

From the NIST ThermoML archive (doi:10.1016/j.jct.2005.03.016)
